Assays:
Cannabinoid receptor 1 = Cannabinoid receptor 1 (Homo sapiens, UniProt P21554); format: functional, cell-based
[1] = target: T1, Equilibrative nucleoside transporter 1 (Homo sapiens, UniProt Q99808)
T1 sequence (Q99808 whole entry): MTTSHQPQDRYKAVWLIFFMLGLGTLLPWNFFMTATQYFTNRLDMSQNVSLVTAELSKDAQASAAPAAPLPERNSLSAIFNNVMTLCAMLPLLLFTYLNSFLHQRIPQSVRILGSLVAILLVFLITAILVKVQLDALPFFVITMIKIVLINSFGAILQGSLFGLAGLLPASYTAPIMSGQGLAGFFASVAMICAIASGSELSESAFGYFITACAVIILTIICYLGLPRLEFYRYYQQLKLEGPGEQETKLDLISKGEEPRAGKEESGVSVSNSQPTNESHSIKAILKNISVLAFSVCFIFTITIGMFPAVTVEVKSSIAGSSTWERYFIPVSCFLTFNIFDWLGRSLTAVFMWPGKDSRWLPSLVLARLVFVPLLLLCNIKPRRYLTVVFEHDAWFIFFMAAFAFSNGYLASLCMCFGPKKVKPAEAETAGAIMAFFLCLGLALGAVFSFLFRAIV

[2] = target: Sodium-dependent noradrenaline transporter (Homo sapiens, UniProt P23975)
Sequence of Sodium-dependent noradrenaline transporter (P23975 whole entry): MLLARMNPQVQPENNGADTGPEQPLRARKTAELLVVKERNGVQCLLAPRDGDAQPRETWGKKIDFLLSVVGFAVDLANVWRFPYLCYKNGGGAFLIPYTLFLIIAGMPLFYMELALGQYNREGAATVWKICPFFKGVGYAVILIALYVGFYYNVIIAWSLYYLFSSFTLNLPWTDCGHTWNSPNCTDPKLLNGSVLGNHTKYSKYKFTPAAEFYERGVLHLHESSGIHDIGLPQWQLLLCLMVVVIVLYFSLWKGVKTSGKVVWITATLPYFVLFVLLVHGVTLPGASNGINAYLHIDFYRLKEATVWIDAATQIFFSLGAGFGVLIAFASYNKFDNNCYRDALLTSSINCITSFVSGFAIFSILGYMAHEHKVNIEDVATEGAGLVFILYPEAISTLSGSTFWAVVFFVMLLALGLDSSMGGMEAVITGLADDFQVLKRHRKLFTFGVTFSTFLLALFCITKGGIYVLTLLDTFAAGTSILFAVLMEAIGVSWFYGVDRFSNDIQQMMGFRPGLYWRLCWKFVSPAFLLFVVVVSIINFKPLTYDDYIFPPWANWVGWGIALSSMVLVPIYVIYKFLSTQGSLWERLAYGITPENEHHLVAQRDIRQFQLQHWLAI

Progesterone receptor = target: T2, Progesterone receptor (Homo sapiens, UniProt P06401); format: functional
T2 sequence (P06401 whole entry): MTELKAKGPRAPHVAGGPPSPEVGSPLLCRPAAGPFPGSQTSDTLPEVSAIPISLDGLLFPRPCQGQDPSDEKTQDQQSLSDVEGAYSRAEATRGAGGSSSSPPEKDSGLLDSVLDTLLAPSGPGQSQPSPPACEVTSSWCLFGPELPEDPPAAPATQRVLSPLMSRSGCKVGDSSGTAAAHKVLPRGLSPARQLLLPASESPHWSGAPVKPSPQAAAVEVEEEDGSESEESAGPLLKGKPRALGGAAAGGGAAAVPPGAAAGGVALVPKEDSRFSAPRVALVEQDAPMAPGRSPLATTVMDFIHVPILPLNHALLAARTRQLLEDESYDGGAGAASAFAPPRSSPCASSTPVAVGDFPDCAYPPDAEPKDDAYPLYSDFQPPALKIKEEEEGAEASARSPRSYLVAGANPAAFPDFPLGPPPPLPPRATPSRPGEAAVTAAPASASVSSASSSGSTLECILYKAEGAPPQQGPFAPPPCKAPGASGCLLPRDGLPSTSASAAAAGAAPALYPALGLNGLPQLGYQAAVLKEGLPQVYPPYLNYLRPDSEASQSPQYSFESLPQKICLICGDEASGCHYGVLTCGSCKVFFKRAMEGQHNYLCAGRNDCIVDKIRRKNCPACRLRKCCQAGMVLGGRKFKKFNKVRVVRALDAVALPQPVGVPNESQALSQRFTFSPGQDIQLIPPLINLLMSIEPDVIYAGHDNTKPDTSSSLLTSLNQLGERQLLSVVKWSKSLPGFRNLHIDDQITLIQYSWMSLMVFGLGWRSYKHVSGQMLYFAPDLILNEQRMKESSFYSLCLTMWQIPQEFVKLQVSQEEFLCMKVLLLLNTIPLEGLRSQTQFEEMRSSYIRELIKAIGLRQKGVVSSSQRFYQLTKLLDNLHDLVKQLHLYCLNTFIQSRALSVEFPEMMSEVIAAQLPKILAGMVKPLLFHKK

[3] = target: Delta-type opioid receptor (Homo sapiens, UniProt P41143)
Sequence of Delta-type opioid receptor (P41143 whole entry): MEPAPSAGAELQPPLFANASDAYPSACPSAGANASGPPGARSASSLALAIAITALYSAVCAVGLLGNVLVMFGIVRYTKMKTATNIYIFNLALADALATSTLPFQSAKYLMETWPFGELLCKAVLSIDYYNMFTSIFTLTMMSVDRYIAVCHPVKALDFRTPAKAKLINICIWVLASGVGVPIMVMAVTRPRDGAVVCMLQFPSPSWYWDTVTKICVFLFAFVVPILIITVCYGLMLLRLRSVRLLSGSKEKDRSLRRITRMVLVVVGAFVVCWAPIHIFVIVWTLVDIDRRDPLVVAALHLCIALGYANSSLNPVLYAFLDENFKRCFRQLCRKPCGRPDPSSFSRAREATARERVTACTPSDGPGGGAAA

[4] = target: T3, Alpha-1A adrenergic receptor (Homo sapiens, UniProt P35348); format: functional, cell-based
T3 sequence (P35348 whole entry): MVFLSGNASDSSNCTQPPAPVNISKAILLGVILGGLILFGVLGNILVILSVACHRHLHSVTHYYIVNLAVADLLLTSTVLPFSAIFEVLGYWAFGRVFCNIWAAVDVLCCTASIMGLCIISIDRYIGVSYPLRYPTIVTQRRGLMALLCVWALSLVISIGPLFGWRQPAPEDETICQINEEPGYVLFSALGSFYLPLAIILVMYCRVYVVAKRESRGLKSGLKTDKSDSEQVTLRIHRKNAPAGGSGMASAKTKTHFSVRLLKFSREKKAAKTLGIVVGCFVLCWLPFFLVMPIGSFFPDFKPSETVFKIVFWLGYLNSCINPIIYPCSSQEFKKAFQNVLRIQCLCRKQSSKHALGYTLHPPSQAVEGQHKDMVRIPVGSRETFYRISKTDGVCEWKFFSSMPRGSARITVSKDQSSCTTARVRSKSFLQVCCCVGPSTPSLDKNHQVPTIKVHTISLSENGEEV

Thromboxane A2 receptor = target: T4, Thromboxane A2 receptor (Homo sapiens, UniProt P21731)
T4 sequence (P21731 whole entry): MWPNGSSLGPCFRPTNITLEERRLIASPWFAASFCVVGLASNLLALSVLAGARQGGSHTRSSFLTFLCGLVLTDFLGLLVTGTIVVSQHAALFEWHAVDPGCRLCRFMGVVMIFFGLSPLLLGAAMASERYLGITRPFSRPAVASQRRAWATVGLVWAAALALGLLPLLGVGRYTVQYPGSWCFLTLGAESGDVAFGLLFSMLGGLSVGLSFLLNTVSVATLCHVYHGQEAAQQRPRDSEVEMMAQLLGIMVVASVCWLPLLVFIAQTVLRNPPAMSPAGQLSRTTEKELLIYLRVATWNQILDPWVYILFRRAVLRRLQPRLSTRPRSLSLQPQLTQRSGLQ
Note: assay procedure not described here.

Sequence of Cannabinoid receptor 1 (P21554 whole entry): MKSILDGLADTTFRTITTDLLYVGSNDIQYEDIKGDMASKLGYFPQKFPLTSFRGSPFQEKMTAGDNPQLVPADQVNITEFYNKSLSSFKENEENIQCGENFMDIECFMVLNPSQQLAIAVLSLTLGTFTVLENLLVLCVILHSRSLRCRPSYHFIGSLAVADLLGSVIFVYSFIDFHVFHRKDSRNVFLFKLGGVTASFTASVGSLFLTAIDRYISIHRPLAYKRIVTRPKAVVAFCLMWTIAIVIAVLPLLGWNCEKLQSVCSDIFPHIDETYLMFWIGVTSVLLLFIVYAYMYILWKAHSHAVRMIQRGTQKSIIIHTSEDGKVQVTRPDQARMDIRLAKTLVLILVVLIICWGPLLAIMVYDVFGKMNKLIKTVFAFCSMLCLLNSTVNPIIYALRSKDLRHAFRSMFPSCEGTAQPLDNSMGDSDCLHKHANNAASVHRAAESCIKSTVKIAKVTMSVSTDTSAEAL

Row | SMILES | AC50 (Cannabinoid receptor 1) [µM] | AC50 [1] [µM] | AC50 [2] [µM] | AC50 (Progesterone receptor) [µM] | AC50 [3] [µM] | AC50 [4] [µM] | AC50 (Thromboxane A2 receptor) [µM]
1 | CC(=N)N1CC[C@H](SC2=C(C(=O)O)N3C(=O)[C@H]([C@@H](C)O)[C@H]3C2)C1 | > 300 | 60 | > 300 | > 300 | 290 | > 300 | 
2 | CC(/C=C1\SC(=S)N(CC(=O)O)C1=O)=C\c1ccccc1 | > 30 | 15 | 15 | > 30 | 9 | > 30 | 27
3 | CC1(C)S[C@@H]2[C@H](NC(=O)[C@H](N)c3ccc(O)cc3)C(=O)N2[C@H]1C(=O)O [AMOXICILLIN] |  | > 30 | > 30 | > 30 | > 30 | > 30 | > 30
4 | O=C1CN2Cc3c(ccc(Cl)c3Cl)N=C2N1 [ANAGRELIDE] | > 30 | > 30 | > 30 |  | > 30 | > 30 | > 30
5 | CNCC[C@@H](Oc1ccccc1C)c1ccccc1 [ATOMOXETINE] | > 30 |  |  | > 30 | > 30 | > 30 | > 30
6 | C=C(C)[C@@H]1CCC(C)=C[C@H]1c1c(O)cc(CCCCC)cc1O [CANNABIDIOL] |  | > 30 | 17.3 | > 10 | > 30 | > 30 | 
7 | CO/N=C(\C(=O)N[C@@H]1C(=O)N2C(C(=O)O)=C(COC(N)=O)CS[C@H]12)c1ccco1 [CEFUROXIME] | > 30 | > 30 | > 30 |  | > 30 | > 30 | 
8 | Clc1cccc(Cl)c1N=C1NCCN1 [CLONIDINE] | > 30 | > 30 | > 10 |  | > 30 |  | > 30
9 | CN1C[C@H](C(=O)N[C@]2(C)O[C@@]3(O)[C@@H]4CCCN4C(=O)[C@H](Cc4ccccc4)N3C2=O)C[C@@H]2c3cccc4[nH]cc(c34)C[C@H]21 [DIHYDROERGOTAMINE] | > 30 | > 30 | > 30 |  | > 30 | 1.7 | 13.7
10 | CNCC[C@H](Oc1cccc2ccccc12)c1cccs1 [DULOXETINE] | > 30 | > 30 |  |  | > 30 |  | > 30
11 | CC1(C)O[C@@H]2C[C@H]3[C@@H]4C[C@H](F)C5=CC(=O)C=C[C@]5(C)[C@H]4[C@@H](O)C[C@]3(C)[C@]2(C(=O)CO)O1 [FLUNISOLIDE] | > 30 | > 30 | > 30 | > 3 | > 30 | > 30 | 
12 | CCC(=O)O[C@@H](O[P@](=O)(CCCCc1ccccc1)CC(=O)N1C[C@H](C2CCCCC2)C[C@H]1C(=O)O)C(C)C [FOSINOPRIL] | > 30 |  |  |  | > 30 | > 30 | 
13 | C[C@H]1Oc2cc(cnc2N)-c2c(nn(C)c2C#N)CN(C)C(=O)c2ccc(F)cc21 [LORLATINIB] | > 30 | > 30 | > 30 | > 30 | > 30 | > 30 | 
14 | Cc1cnc(NC(=O)C2=C(O)c3ccccc3S(=O)(=O)N2C)s1 [MELOXICAM] | > 30 | > 30 | > 10 |  | > 10 | > 30 | > 30
15 | CC[C@@H](CO)NC(=O)[C@@H]1C=C2c3cccc4[nH]cc(c34)C[C@H]2N(C)C1 [METHYLERGONOVINE] | > 30 |  | > 30 |  | > 30 | 0.02 | > 30
16 | CNCCC=C1c2ccccc2CCc2ccccc21 [NORTRIPTYLINE] |  | > 30 |  | > 30 | > 30 | > 30 | > 30
17 | CN(C)c1cc(CNCC(C)(C)C)c(O)c2c1C[C@H]1C[C@H]3[C@H](N(C)C)C(O)=C(C(N)=O)C(=O)[C@@]3(O)C(O)=C1C2=O [OMADACYCLINE] | > 30 | > 10 | > 30 | > 30 | 27 | > 30 | 
18 | COc1ccnc(C[S+]([O-])c2nc3ccc(OC(F)F)cc3[nH]2)c1OC (centres undefined) [PANTOPRAZOLE] | > 30 | > 30 | > 10 |  | > 30 | > 30 | > 30
19 | COc1ccc(Cc2nccc3cc(OC)c(OC)cc23)cc1OC [PAPAVERINE] | > 30 | 10 | > 30 | > 30 |  | > 30 | > 30
20 | CC(C)C[C@H](CN)CC(=O)O [PREGABALIN] | > 30 | > 30 | > 30 | > 30 | > 30 |  | > 30
21 | CNC(=O)c1cc(Oc2ccc(NC(=O)Nc3ccc(Cl)c(C(F)(F)F)c3)c(F)c2)ccn1 [REGORAFENIB] |  |  | 21.9 | > 30 | > 30 | > 30 | 
22 | CCOc1cc(CC(=O)N[C@@H](CC(C)C)c2ccccc2N2CCCCC2)ccc1C(=O)O [REPAGLINIDE] | > 30 | > 30 | > 30 | > 30 | > 30 | 27 | 
23 | O=C(Nc1c(Cl)cncc1Cl)c1ccc(OC(F)F)c(OCC2CC2)c1 [ROFLUMILAST] | > 30 |  | > 30 |  |  | > 30 | > 30
24 | CCCN(CCc1cccs1)[C@H]1CCc2c(O)cccc2C1 [ROTIGOTINE] | > 30 | 29 | 5.1 | > 30 | 25 |  | 
25 | CC[C@H]1OC(=O)[C@H](C)[C@@H](O[C@H]2C[C@@](C)(OC)[C@@H](O)[C@H](C)O2)[C@H](C)[C@@H](O[C@@H]2O[C@H](C)C[C@H](N(C)C)[C@H]2O)[C@](C)(O)C[C@@H](C)/C(=N\OCOCCOC)[C@H](C)[C@@H](O)[C@]1(C)O [ROXITHROMYCIN] | > 30 | > 30 | > 30 | > 30 | > 30 | > 30 | 
26 | CC(=O)S[C@@H]1CC2=CC(=O)CC[C@]2(C)[C@H]2CC[C@@]3(C)[C@@H](CC[C@@]34CCC(=O)O4)[C@H]12 [SPIRONOLACTONE] | > 30 | > 30 | > 30 |  | > 30 | > 30 | > 30
27 | CN1CCN(CCCN2c3ccccc3Sc3ccc(S(=O)(=O)N(C)C)cc32)CC1 [THIOPROPERAZINE] | > 30 |  |  |  | 29 | > 30 | 

Reference: ChEMBL document CHEMBL5291721, “A preclinical secondary pharmacology resource illuminates target-adverse drug reaction associations of marketed drugs” (Nat Commun, 2023)
